Data from EP4810052A2, “HCRHR2 SELECTIVE POLYPEPTIDES” (Gubra A/S, priority 2023, dated 2026).
Read-outs that look alike come from different tables or passages of the source. Starred links: 1 amine or outer side, 2 acyl side, 3 side chain; linkers in the order of their positions; H or OH if unused. Non-standard residues stand in square brackets, D forms with d. Residues, ends and D or L forms follow the SMILES beside them. Groups on a side chain read outwards from the residue. *: point of attachment. C20 diacid = O=C(O)CCCCCCCCCCCCCCCCCCC(=O)*; γGlu = O=C(O)[C@H](CCC(=O)[*:2])N[*:1]; Hyp = O=C(O)[C@@H]1C[C@@H](O)CN1; NMeI = CC[C@H](C)[C@H](NC)C(=O)O; Nle = CCCC[C@H](N)C(=O)O; AEEA = NCCOCCOCC(=O)O; Aib = CC(C)(N)C(=O)O

Key:
hCRHR1 = molecular target: T1, hCRHR1 (Homo sapiens, UniProt P34998); experiment: HTRF cAMP assay, determination of hCRHR1 potency (peptide libraries 5 conc., purified peptides 11 conc.); assay type: cell-based
T1 sequence (P34998 24-415): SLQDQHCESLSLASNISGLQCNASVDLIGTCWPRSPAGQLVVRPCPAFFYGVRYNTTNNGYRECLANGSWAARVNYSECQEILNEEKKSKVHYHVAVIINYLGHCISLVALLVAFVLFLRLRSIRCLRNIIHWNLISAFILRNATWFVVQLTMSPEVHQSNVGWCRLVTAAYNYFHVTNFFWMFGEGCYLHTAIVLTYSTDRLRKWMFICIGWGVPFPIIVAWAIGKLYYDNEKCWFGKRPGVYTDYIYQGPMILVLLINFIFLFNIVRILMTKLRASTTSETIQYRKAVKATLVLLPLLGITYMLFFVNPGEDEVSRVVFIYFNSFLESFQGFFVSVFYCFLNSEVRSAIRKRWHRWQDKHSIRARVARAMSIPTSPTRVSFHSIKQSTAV
From the text: HTRF (CisBio) cAMP assay: The assay technology has thoroughly been described in the CisBio HTRF cAMP assay Kit manual (# 62AM4PEC). Briefly, time resolved fluorescence technic was applied to measure cAMP. This technic is based on a competitive immunoassay using cryptate-labelled anti-cAMP antibody and d2-labeled cAMP. In the absence of cellular cAMP, the anti-cAMP cryptate conjugate may get into proximity to cAMP-d2 conjugate and energy (FRET) can be transferred from cryptate to d2. CHO-K1 cells stably expressing the human corticotropin-releasing hormone receptor 1 (Eurofins/DiscoverX Cat #95-0047C2 hCRHR1 stable monoclonal cell lines) were used as cells in suspension, brought to life from frozen cell stocks immediately before assay performance. […] Concentration-response evaluation of compounds was performed with 5 concentrations of agonist peptides and EC50 values were calculated by nonlinear regression using sigmoid concentration-response with variable slope. Concentration-response evaluation of compounds was performed with 11 concentrations of agonist peptides and EC50 values were calculated by nonlinear regression using sigmoid concentration-response with variable slope.

hCRHR2 = molecular target: T2, hCRHR2 (Homo sapiens, UniProt Q13324); experiment: HTRF cAMP assay, determination of hCRHR2 potency (peptide libraries 5 conc., purified peptides 11 conc.); assay type: cell-based
T2 sequence (Q13324 1-411): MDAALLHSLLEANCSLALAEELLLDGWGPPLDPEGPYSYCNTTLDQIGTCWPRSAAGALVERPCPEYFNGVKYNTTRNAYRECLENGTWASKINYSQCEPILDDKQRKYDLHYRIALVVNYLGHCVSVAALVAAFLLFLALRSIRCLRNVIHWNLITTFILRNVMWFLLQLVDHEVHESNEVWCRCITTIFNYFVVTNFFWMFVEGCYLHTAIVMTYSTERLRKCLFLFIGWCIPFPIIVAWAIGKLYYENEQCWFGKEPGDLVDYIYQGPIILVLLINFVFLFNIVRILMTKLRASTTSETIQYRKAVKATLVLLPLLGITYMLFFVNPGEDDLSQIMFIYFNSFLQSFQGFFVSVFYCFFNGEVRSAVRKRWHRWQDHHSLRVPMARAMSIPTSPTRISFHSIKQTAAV
From the text: HTRF (CisBio) cAMP assay: The assay technology has thoroughly been described in the CisBio HTRF cAMP assay Kit manual (# 62AM4PEC). Briefly, time resolved fluorescence technic was applied to measure cAMP. This technic is based on a competitive immunoassay using cryptate-labelled anti-cAMP antibody and d2-labeled cAMP. In the absence of cellular cAMP, the anti-cAMP cryptate conjugate may get into proximity to cAMP-d2 conjugate and energy (FRET) can be transferred from cryptate to d2.
CHO-K1 cells stably expressing the human corticotropin-releasing hormone receptor 2 (Eurofins/DiscoverX, Cat #95-0048C2 hCRHR2 stable monoclonal cell lines) were used as cells in suspension, brought to life from frozen cell stocks immediately before assay performance.
Concentration-response evaluation of compounds was performed with 5 concentrations of agonist peptides and EC50 values were calculated by nonlinear regression using sigmoid concentration-response with variable slope.
Concentration-response evaluation of compounds was performed with 11 concentrations of agonist peptides and EC50 values were calculated by nonlinear regression using sigmoid concentration-response with variable slope.

[1] = library peptides, matched molecular pairs L vs Nle in position X^38, read-out: Potency hCRHR1 pEC50 (converted)
[2] = library peptides, matched molecular pairs L vs Nle in position X^38, read-out: Potency hCRHR2 pEC50 (converted)
[3] = Table 4, library peptides having X^38 = Nle, read-out: hCRHR1 pEC50 (converted)
[4] = Table 4, library peptides having X^38 = Nle, read-out: hCRHR2 pEC50 (converted)

Row | EC50 (hCRHR1; [1]) [nM] | EC50 (hCRHR2; [2]) [nM] | EC50 (hCRHR1; [3]) [nM] | EC50 (hCRHR2; [4]) [nM] | Selectivity hCRHR1 EC50/hCRHR2 EC50 (hCRHR2; Table 4, ratio, or comparison with Ref. 1 (SEQ ID NO: 205) / Ref. 2 (SEQ ID NO: 124)) | Compound
1 | 25.1 | 1 | – | – | – | CC[C@H](C)[C@H](N)C(=O)N[C@H](C(=O)N[C@@H](CC(C)C)C(=O)N[C@@H](CO)C(=O)N[C@@H](CC(C)C)C(=O)N[C@@H](CC(=O)O)C(=O)N[C@H](C(=O)N1C[C@H](O)C[C@H]1C(=O)N[C@H](C(=O)NCC(=O)N[C@@H](CC(C)C)C(=O)N[C@@H](CC(C)C)C(=O)N[C@@H](CCC(N)=O)C(=O)N[C@H](C(=O)N[C@@H](CC(C)C)C(=O)N[C@@H](CC(C)C)C(=O)N[C@@H](CCC(=O)O)C(=O)N[C@@H](CCC(N)=O)C(=O)N[C@@H](C)C(=O)N[C@@H](CCCNC(=N)N)C(=O)N[C@@H](C)C(=O)N[C@@H](CCCNC(=N)N)C(=O)N[C@H](C(=O)N[C@@H](C)C(=O)N[C@@H](CCCNC(=N)N)C(=O)N[C@@H](CCC(=O)O)C(=O)N[C@@H](CCC(N)=O)C(=O)N[C@@H](C)C(=O)N[C@@H](CCCCNC(=O)COCCOCCNC(=O)COCCOCCNC(=O)CC[C@H](NC(=O)CC[C@H](NC(=O)CCCCCCCCCCCCCCCCCCC(=O)O)C(=O)O)C(=O)O)C(=O)N[C@H](C(=O)N[C@@H](CC(N)=O)C(=O)N[C@@H](C)C(=O)N[C@@H](CCC(=O)O)C(=O)N[C@H](C(=O)N[C@@H](CC(C)C)C(=O)N[C@@H](C)C(=O)N[C@@H](CCC(=O)O)C(=O)N[C@H](C(N)=O)C(C)C)[C@@H](C)CC)[C@@H](C)O)C(C)C)[C@@H](C)CC)[C@@H](C)CC)C(C)C)C(C)C [compound 84] (H-IVLSLDV[Hyp]IGLLQILLEQARARVAREQAK([AEEA-AEEA-γGlu-γGlu-C20 diacid])TNAEILAEV-NH2)
2 | 3160 | 0.398 | – | – | – | CC[C@H](C)[C@H](N)C(=O)N[C@H](C(=O)N[C@@H](CC(C)C)C(=O)N[C@@H](CO)C(=O)N[C@@H](CC(C)C)C(=O)N[C@@H](CC(=O)O)C(=O)N[C@H](C(=O)N1CCC[C@H]1C(=O)N[C@H](C(=O)NCC(=O)N[C@@H](CC(C)C)C(=O)N[C@@H](CC(C)C)C(=O)N[C@@H](CCC(N)=O)C(=O)N[C@H](C(=O)N[C@@H](CC(C)C)C(=O)N[C@@H](CC(C)C)C(=O)N[C@@H](CCC(=O)O)C(=O)N[C@@H](CCC(N)=O)C(=O)N[C@@H](C)C(=O)N[C@@H](CCCNC(=N)N)C(=O)N[C@@H](C)C(=O)N[C@@H](CCCNC(=N)N)C(=O)N[C@@H](C)C(=O)N[C@@H](CCC(N)=O)C(=O)N[C@@H](CCCNC(=N)N)C(=O)N[C@@H](CCC(=O)O)C(=O)N[C@@H](CCC(N)=O)C(=O)N[C@@H](C)C(=O)N[C@@H](CCCCNC(=O)COCCOCCNC(=O)COCCOCCNC(=O)CC[C@H](NC(=O)CC[C@H](NC(=O)CCCCCCCCCCCCCCCCCCC(=O)O)C(=O)O)C(=O)O)C(=O)N[C@H](C(=O)N[C@@H](CC(N)=O)C(=O)N[C@@H](C)C(=O)N[C@@H](CCC(=O)O)C(=O)N[C@H](C(=O)N[C@@H](CC(C)C)C(=O)N[C@@H](C)C(=O)N[C@@H](CCC(=O)O)C(=O)N[C@H](C(N)=O)C(C)C)[C@@H](C)CC)[C@@H](C)O)[C@@H](C)CC)[C@@H](C)CC)C(C)C)C(C)C [compound 56] (H-IVLSLDVPIGLLQILLEQARARAQREQAK([AEEA-AEEA-γGlu-γGlu-C20 diacid])TNAEILAEV-NH2)
3 | – | – | 794 | 0.01 | – | CCCC[C@H](NC(=O)[C@@H](NC(=O)[C@H](CCC(=O)O)NC(=O)[C@H](C)NC(=O)[C@H](CC(N)=O)NC(=O)C(C)(C)NC(=O)[C@H](CCCCNC(=O)COCCOCCNC(=O)COCCOCCNC(=O)CC[C@H](NC(=O)CC[C@H](NC(=O)CCCCCCCCCCCCCCCCCCC(=O)O)C(=O)O)C(=O)O)NC(=O)[C@H](C)NC(=O)[C@H](CCC(N)=O)NC(=O)[C@H](CCC(=O)O)NC(=O)[C@H](CCCNC(=N)N)NC(=O)[C@H](C)NC(=O)[C@H](C)NC(=O)[C@H](CCCNC(=N)N)NC(=O)[C@H](C)NC(=O)[C@H](CCCNC(=N)N)NC(=O)[C@H](C)NC(=O)[C@H](CCC(N)=O)NC(=O)[C@H](Cc1c[nH]cn1)NC(=O)[C@H](CC(C)C)NC(=O)[C@H](CC(C)C)NC(=O)[C@@H](NC(=O)[C@H](CCC(N)=O)NC(=O)[C@H](CC(C)C)NC(=O)[C@H](CC(C)C)NC(=O)CNC(=O)[C@@H](NC(=O)[C@@H]1CCCN1C(=O)[C@@H](NC(=O)[C@H](CC(=O)O)NC(=O)[C@H](CC(C)C)NC(=O)[C@H](CO)NC(=O)[C@H](CC(C)C)NC(=O)[C@@H](NC(=O)[C@@H](NC)[C@@H](C)CC)C(C)C)C(C)C)[C@@H](C)CC)[C@@H](C)CC)[C@@H](C)CC)C(=O)N[C@@H](C)C(=O)N[C@@H](CCC(=O)O)C(=O)N[C@H](C(N)=O)C(C)C [compound 126] (H-[NMeI]VLSLDVPIGLLQILLHQARARAAREQAK([AEEA-AEEA-γGlu-γGlu-C20 diacid])[Aib]NAEI[Nle]AEV-NH2)
4 | – | – | 1260 | 0.0631 | 20689 | CCCC[C@H](NC(=O)[C@@H](NC(=O)[C@H](CCC(=O)O)NC(=O)C(C)(C)NC(=O)[C@H](CC(N)=O)NC(=O)[C@@H](NC(=O)[C@H](CCCCNC(=O)COCCOCCNC(=O)COCCOCCNC(=O)CC[C@H](NC(=O)CC[C@H](NC(=O)CCCCCCCCCCCCCCCCCCC(=O)O)C(=O)O)C(=O)O)NC(=O)[C@H](C)NC(=O)[C@H](CCC(N)=O)NC(=O)[C@H](CCC(=O)O)NC(=O)[C@H](CCCNC(=N)N)NC(=O)[C@H](C)NC(=O)[C@H](C)NC(=O)[C@H](CCCNC(=N)N)NC(=O)[C@H](C)NC(=O)[C@H](CCCNC(=N)N)NC(=O)[C@H](C)NC(=O)[C@H](CCC(N)=O)NC(=O)[C@H](CCC(=O)O)NC(=O)[C@H](CC(C)C)NC(=O)[C@H](CC(C)C)NC(=O)[C@@H](NC(=O)[C@H](CCC(N)=O)NC(=O)[C@H](CC(C)C)NC(=O)[C@H](CC(C)C)NC(=O)CNC(=O)[C@@H](NC(=O)[C@@H]1CCCN1C(=O)[C@@H](NC(=O)[C@H](CC(=O)O)NC(=O)[C@H](CC(C)C)NC(=O)[C@H](CO)NC(=O)[C@H](CC(C)C)NC(=O)[C@@H](NC(=O)[C@@H](NC)[C@@H](C)CC)C(C)C)C(C)C)[C@@H](C)CC)[C@@H](C)CC)[C@@H](C)O)[C@@H](C)CC)C(=O)N[C@@H](C)C(=O)N[C@@H](CCC(=O)O)C(=O)N[C@H](C(N)=O)C(C)C [compound 205] (H-[NMeI]VLSLDVPIGLLQILLEQARARAAREQAK([AEEA-AEEA-γGlu-γGlu-C20 diacid])TN[Aib]EI[Nle]AEV-NH2)
